# Laboratory results taken from patent publication US12528790B2, “Amide derivative having antiviral activity” (Shionogi & Co., Ltd., priority 2020, dated 2026).
# Where two headings read alike, the source gives them in different places.
# Experiments:
# [1] = tested on: RSV B (Wash/18537 strain); assay: In vitro CPE (CytoPathic Effect) inhibition effect evaluation test, RSV type B; type: cell-based
# Method: The test sample is diluted in advance to an appropriate concentration with DMSO, and 3-fold series of serial dilutions were prepared on a 384-well plate (0.32 μL/well). HEp-2 cells (CCL-23; ATCC) adjusted at appropriate number (2.4×10^5 cells/mL) in 2% FBS E-MEM (prepared by adding kanamycin and FBS to Eagle's Minimum Essential Medium; Invitrogen) were added at 12.5 μL/well to the 384-well plate previously aliquoted with the test samples. The RSV A2 strain was diluted to an appropriate concentration in a culture medium and added to the 384-well plate containing the test sample at 12.5 μL/well. The culture medium was added additionally to the 384-well plate, and the test was started with 50 μL/well. Control wells were prepared with only virus-free culture medium. The plate was incubated in a 5% CO2 incubator at 37° C. for 4 days, and the plate was then placed at room temperature for 30 minutes. CellTiter-Glo (registered trademark) 2.0 assay (Promega) was added at 15 μL/well, mixed for 30 seconds, and the plate was placed for approximately 1 hour. The luminescent signal was then measured by EnVision (PerkinElmer). The inhibitory effect of the test agents on RSV-induced CPE was calculated as 0% and 100% inhibition rate for each sample concentration based on the level of remaining viable cells by CellTiter-Glo (registered trademark) 2.0, with the EC50 value for each compound calculated by nonlinear regression as the concentration that inhibits RSV-induced CPE by 50%. In the case of evaluation against RSV type B, RSV B (Wash/18537 strain) was infected in the same manner as the type A, cultured for 5 days, and quantitated in the same manner as for the A2 strain.
# [2] = tested on: RSV A2 strain; assay: In vitro CPE (CytoPathic Effect) inhibition effect evaluation test, RSV type A; type: cell-based
# Method in brief: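 HEp-2 cells (2.4×10^5 cells/mL, 2% FBS E-MEM) were infected with RSV alongside 3-fold compound dilutions and incubated at 37 °C, 4 days for A2 and 5 days for B Wash/18537. Viable cells quantified by CellTiter-Glo 2.0 luminescence; EC50 by nonlinear regression as 50% CPE inhibition.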
# [3] = human respiratory syncytial virus, HEp-2, 120 h, HEp-2 cells, RSV B (Wash/18537 strain), 5 days, CellTiter-Glo, read-out: EC50, inhibitory effect against RSV type B (CPE inhibition)
# [4] = human respiratory syncytial virus, HEp-2, 96 h, read-out: EC50, inhibitory effect against RSV type A (CPE inhibition)
# [5] = human respiratory syncytial virus, inhibitory effect against RSV type B, CPE inhibition, read-out: EC50
# [6] = human respiratory syncytial virus, inhibitory effect against RSV type A (RSV A2 strain), HEp-2 cells, CPE inhibition, read-out: EC50
SMILES,"EC50 [1, 5]","EC50 [2, 6]",also measured
O=C(NC1(C(=O)O)C2CC3CC(C2)CC1C3)c1cnc(-c2cn(C3CCC(F)(F)CC3)c3nc(OC4CCN(c5ncccn5)CC4)ccc23)nc1C(F)(F)F (stereo not drawn) [Compound I-228],–,–,"EC50 [1, 3]: 36 nM; EC50 [2, 4]: 1.3 nM"
O=C(NC1(C(=O)O)C2CC3CC(C2)CC1C3)c1cnc(-c2cn(C3CCC(F)(F)CC3)c3cc(OC4CCN(C5COC5)CC4)ccc23)nc1C(F)(F)F (stereo not drawn) [Compound I-234],10 to 100 nM,< 10 nM,–
O=C(NC1(C(=O)O)C2CC3CC(C2)CC1C3)c1cnc(-c2cn(C3CCC(F)(F)CC3)c3cc(OC4CCN(c5ncc(F)cn5)CC4)ccc23)nc1C(F)(F)F (stereo not drawn) [Compound I-237],< 10 nM,< 10 nM,–
O=C(NC1(C(=O)O)C2CC3CC(C2)CC1C3)c1cnc(-c2cn(C3CCC(F)(F)CC3)c3cc(OC4CCN(c5ncccn5)CC4)ccc23)nc1C(F)(F)F (stereo not drawn) [Compound I-239],< 10 nM,< 10 nM,–
Cc1nc(-c2cn(C3CCOCC3)c3cc(OC4CCN(c5ncccn5)CC4)ccc23)nc(C(F)(F)F)c1C(=O)NC1(C(=O)O)C2CC3CC(C2)CC1C3 (stereo not drawn) [Compound I-245],< 10 nM,< 10 nM,–
O=C(NC1(C(=O)O)C2CC3CC(C2)CC1C3)c1cnc(-c2cn(C3CCC(F)(F)CC3)c3cc(OC4CCN(C5CC(F)(F)C5)CC4)ccc23)nc1C(F)(F)F (stereo not drawn) [Compound I-249],10 to 100 nM,< 10 nM,–
COC1CC(n2cc(-c3ccc(C(=O)NC4(C(=O)O)C5CC6CC(C5)CC4C6)c(C(F)(F)F)n3)c3ccc(OC4CCN(c5ncccn5)CC4)cc32)C1 (stereo not drawn) [Compound I-250],< 10 nM,< 10 nM,–
O=C(NC1(C(=O)O)C2CC3CC(C2)CC1C3)c1cnc(-c2cn(C3CCC(F)(F)CC3)c3cc(OC4CCC5(CC4)COC5)ccc23)nc1C(F)(F)F (stereo not drawn) [Compound I-256],< 10 nM,< 10 nM,–
O=C(NC1(C(=O)O)C2CC3CC(C2)CC1C3)c1cnc(-c2cn(C3CCC(F)(F)CC3)c3cc(OC4CCN(c5ncccn5)CC4)ncc23)nc1C(F)(F)F (stereo not drawn) [Compound I-268],–,–,"EC50 [1, 3]: 4.3 nM; EC50 [2, 4]: 1.4 nM"
O=C(NC1(C(=O)O)C2CC3CC(C2)CC1C3)c1ccc(-c2cn(S(=O)(=O)C3CC3)c3cc(OC4CCN(c5ncccn5)CC4)ccc23)nc1C(F)(F)F (stereo not drawn) [Compound I-272],10 to 100 nM,< 10 nM,–
O=C(NC1(C(=O)O)C2CC3CC(C2)CC1C3)c1cnc(N2CC3(CCOCC3)c3cc(OC4CCN(c5ncc(F)cn5)CC4)ccc32)nc1C(F)(F)F (stereo not drawn) [Compound I-275],< 10 nM,< 10 nM,–
N#Cc1cc(C(=O)NC2(C(=O)O)C3CC4CC(C3)CC2C4)c(C(F)(F)F)nc1N1CC2(CCOCC2)c2cc(OC3CCN(c4ncccn4)CC3)ccc21 (stereo not drawn) [Compound I-276],< 10 nM,< 10 nM,–
O=C(NC1(C(=O)O)C2CC3CC(C2)CC1C3)c1cnc(N2CC3(CCOCC3)c3cc(C(=O)N4CCN(c5ncccn5)CC4)ccc32)nc1C(F)(F)F (stereo not drawn) [Compound I-353],–,–,"EC50 ([1]; inhibitory effect against RSV type B, CPE inhibition, read-out: EC50): < 10 nM; EC50 ([2]; inhibitory effect against RSV type A (RSV A2 strain), HEp-2 cells, CPE inhibition, read-out: EC50): < 10 nM"
O=C(NC1(C(=O)O)C2CC3CC(C2)CC1C3)c1cnc(-c2cn(C3CCC(F)(F)CC3)c3cc(OC4CCC5(CC4)CN(CC(F)(F)F)C5)ccc23)nc1C(F)(F)F (stereo not drawn) [Compound I-370],10 to 100 nM,< 10 nM,–
O=C(NC1(C(=O)O)C2CC3CC(C2)CC1C3)c1cnc(-c2cn(C3CC3)c3cc(OC4CCN(c5ncc(F)cn5)CC4)ccc23)nc1C(F)(F)F (stereo not drawn) [Compound I-379],< 10 nM,< 10 nM,–
CC(F)(F)c1nc(N2CC3(CCCCC3)c3cc(OC4CCN(c5ncccn5)CC4)ccc32)ncc1C(=O)NC1(C(=O)O)C2CC3CC(C2)CC1C3 (stereo not drawn) [Compound I-380],< 10 nM,< 10 nM,–
O=C(NC1(C(=O)O)C2CC3CC(C2)CC1C3)c1cnc(N2CC3(CCCCC3)c3cc(OC4CCN(CC(F)(F)F)CC4)ccc32)nc1C(F)(F)F (stereo not drawn) [Compound I-382],10 to 100 nM,< 10 nM,–

SMILES,"EC50 [1, 5]","EC50 [2, 6]",also measured
O=C(NC1(C(=O)O)C2CC3CC(C2)CC1C3)c1cnc(N2CC3(CCOCC3)c3cc(OC4CCN(CC(F)(F)F)CC4)ccc32)nc1C(F)(F)F (stereo not drawn) [Compound I-384],< 10 nM,< 10 nM,–
O=C(NC1(C(=O)O)C2CC3CC(C2)CC1C3)c1cnc(N2CC3(CCCCC3)c3cc(OC4CCN(C5CC(F)(F)C5)CC4)ccc32)nc1C(F)(F)F (stereo not drawn) [Compound I-393],10 to 100 nM,< 10 nM,–
CC(F)(F)c1nc(N2CC3(CCCCC3)c3cc(OC4CCN(c5ncc(F)cn5)CC4)ccc32)ncc1C(=O)NC1(C(=O)O)C2CC3CC(C2)CC1C3 (stereo not drawn) [Compound I-396],< 10 nM,< 10 nM,–
O=C(NC1(C(=O)O)C2CC3CC(C2)CC1C3)c1cnc(N2CC3(CCCCC3)c3cc(OC4CCC5(CC4)COC5)ccc32)nc1C(F)(F)F (stereo not drawn) [Compound I-399],10 to 100 nM,< 10 nM,–
CC(F)(F)c1nc(N2CC3(CCCCC3)c3cc(OC4CCN(C5CC(F)(F)C5)CC4)ccc32)ncc1C(=O)NC1(C(=O)O)C2CC3CC(C2)CC1C3 (stereo not drawn) [Compound I-400],10 to 100 nM,< 10 nM,–
CC(F)(F)c1nc(N2CC3(CCCCC3)c3cc(OC4CCC5(CC4)COC5)ccc32)ncc1C(=O)NC1(C(=O)O)C2CC3CC(C2)CC1C3 (stereo not drawn) [Compound I-401],10 to 100 nM,< 10 nM,–
O=C(NC1(C(=O)O)C2CC3CC(C2)CC1C3)c1cnc(N2CC3(CCOCC3)c3cc(OC4CCN(c5ncc(F)cn5)CC4)ncc32)nc1C(F)(F)F (stereo not drawn) [Compound I-402],< 10 nM,< 10 nM,–
O=C(NC1(C(=O)O)C2CC3CC(C2)CC1C3)c1cnc(-c2cn(C3CCC(F)(F)CC3)c3cc(OC4CC5(C4)CN(CC(F)(F)F)C5)ccc23)nc1C(F)(F)F (stereo not drawn) [Compound I-406],10 to 100 nM,< 10 nM,–
O=C(NC1(C(=O)O)C2CC3CC(C2)CC1C3)c1cnc(-c2cn(C3CCC(F)(F)CC3)c3cc(OC4CC5(C4)CN(c4ncc(F)cn4)C5)ccc23)nc1C(F)(F)F (stereo not drawn) [Compound I-407],100 to 5000 nM,< 10 nM,–
O=C(NC1(C(=O)O)C2CC3CC(C2)CC1C3)c1cnc(-c2cn(C3CCC(F)(F)CC3)c3cc(O[C@H]4CC[C@@H](N5CC(F)(F)C5)CC4)ccc23)nc1C(F)(F)F (stereo partly drawn) [Compound I-415],< 10 nM,< 10 nM,–
O=C(NC1(C(=O)O)C2CC3CC(C2)CC1C3)c1cnc(-c2cn(C3CCC(F)(F)CC3)c3cc(C(=O)N4CCN(CC(F)(F)F)CC4)ccc23)nc1C(F)(F)F (stereo not drawn) [Compound I-418],< 10 nM,< 10 nM,–
CCC(CC)n1cc(-c2ncc(C(=O)NC3(C(=O)O)C4CC5CC(C4)CC3C5)c(C(F)(F)F)n2)c2ccc(OC3CCN(c4ncc(F)cn4)CC3)cc21 (stereo not drawn) [Compound I-421],< 10 nM,< 10 nM,–
CC(F)(F)CN1CCC(Oc2ccc3c(-c4ncc(C(=O)NC5(C(=O)O)C6CC7CC(C6)CC5C7)c(C(F)(F)F)n4)cn(C4CCC(F)(F)CC4)c3c2)CC1 (stereo not drawn) [Compound I-422],< 10 nM,< 10 nM,–
O=C(NC1(C(=O)O)C2CC3CC(C2)CC1C3)c1cnc(-c2cn(C3CCC(F)(F)CC3)c3cc(OC4CCN(CC5(F)COC5)CC4)ccc23)nc1C(F)(F)F (stereo not drawn) [Compound I-429],10 to 100 nM,< 10 nM,–
O=C(NC1(C(=O)O)C2CC3CC(C2)CC1C3)c1cnc(-c2cn(C3CCOCC3)c3cc(OC4CCN(c5ncc(F)cn5)CC4)ccc23)nc1C(F)(F)F (stereo not drawn) [Compound I-431],< 10 nM,< 10 nM,–
O=C(NC1(C(=O)O)C2CC3CC(C2)CC1C3)c1cnc(-c2cn(C3CCC4(CC3)COC4)c3cc(OC4CCN(c5ncc(F)cn5)CC4)ccc23)nc1C(F)(F)F (stereo not drawn) [Compound I-437],< 10 nM,< 10 nM,–
